Measured values: ChEMBL document CHEMBL1139919, “Beta-substituted cyclohexanecarboxamide cathepsin K inhibitors: modification of the 1,2-disubstituted aromatic core” (Bioorg Med Chem Lett, 2007)

Legend:
Oryctolagus cuniculus [1] = species on record: Oryctolagus cuniculus; assay: Selectivity for IC50 of new Zealand white […] bone resorption over IC50 rabbit cathepsin K; format: functional
Homo sapiens [2] = species on record: Homo sapiens; assay: Selectivity for human cathepsin K over human cathepsin B
Oryctolagus cuniculus [3] = species on record: Oryctolagus cuniculus; assay: Inhibition of bone resorption in New Zealand white rabbit by crosslaps ELISA assay; format: functional, organism-based
Cathepsin K [4] = target: Cathepsin K (Homo sapiens, UniProt P43235); assay: Inhibition of humaized rabbit cathepsin K
Homo sapiens [5] = species on record: Homo sapiens; assay: Selectivity for human cathepsin K over human cathepsin S
Cathepsin K [6] = target: T1, Cathepsin K (Oryctolagus cuniculus, UniProt P43236); assay: Inhibition of rabbit cathepsin K
T1 sequence (P43236 whole entry): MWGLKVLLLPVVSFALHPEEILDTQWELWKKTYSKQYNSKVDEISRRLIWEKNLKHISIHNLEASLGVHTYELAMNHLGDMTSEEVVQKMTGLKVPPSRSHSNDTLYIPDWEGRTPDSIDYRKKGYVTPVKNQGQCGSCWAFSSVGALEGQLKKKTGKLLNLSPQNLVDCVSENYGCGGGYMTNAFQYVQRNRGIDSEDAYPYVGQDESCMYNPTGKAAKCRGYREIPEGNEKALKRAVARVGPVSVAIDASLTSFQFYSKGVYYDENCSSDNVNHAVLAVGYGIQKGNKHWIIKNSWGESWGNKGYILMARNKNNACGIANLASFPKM

Homo sapiens [7] = species on record: Homo sapiens; assay: Selectivity for human cathepsin K over human cathepsin L
[8] = Oral bioavailability in rat at 5 mg/kg; format: ADME, organism-based; conditions: in vivo
[9] = Half life in rat at 5 mg/kg, po or 1 mg/kg, iv; format: ADME, organism-based; conditions: in vivo
[10] = AUC in rat at 5 mg/kg, po or 1 mg/kg, iv; format: ADME, organism-based; conditions: plasma
[11] = Half life in rat at 10 mg/kg, po or 5 mg/kg, iv; format: ADME, organism-based; conditions: in vivo
[12] = Oral bioavailability in rat at 10 mg/kg; format: ADME, organism-based; conditions: in vivo
[13] = AUC in rat at 10 mg/kg, po or 5 mg/kg, iv; format: ADME, organism-based; conditions: plasma

Row | SMILES | Selectivity ratio (Homo sapiens [2]) | IC50 (Oryctolagus cuniculus [3]; Oryctolagus cuniculus) [nM] | IC50 (Cathepsin K [4]) [nM] | Selectivity ratio (Homo sapiens [5]) | IC50 (Cathepsin K [6]) [nM] | Selectivity ratio (Homo sapiens [7]) | bioavailability [8] [%] | half-life [9] [h] | AUC [10] [µM·h] | half-life [11] [h] | bioavailability [12] [%] | AUC [13] [µM·h] | IC50 (Oryctolagus cuniculus [3]) [nM] | Ratio IC50 (Oryctolagus cuniculus [1])
1 | CSc1ccc(-c2c(C3CCC(F)(F)CC3C(=O)NCC#N)cc[nH]c2=O)cc1 (racemic) | > 1250 | 84 | 8 | 310 | 6 | 430 | – | – | – | – | – | – | – | 14
2 | CSc1ccc(-c2c(C3CCC(F)(F)CC3C(=O)NCC#N)nnn2Cc2ccccc2)cc1 (racemic) | 1400 | 33 | 2 | 180 | 9 | 350 | – | – | – | – | – | – | – | 4
3 | CSc1ccc(-c2nc(C)sc2C2CCC(F)(F)CC2C(=O)NCC#N)cc1 (racemic) | 15000 | 17 | 0.2 | 380 | 0.1 | 270 | – | – | – | – | – | – | – | 170
4 | CSc1ccc(-c2cnccc2C2CCC(F)(F)CC2C(=O)NCC#N)cc1 (racemic) | > 10000 | 18 | 1 | 720 | 1 | 520 | 65 | 1 | 8.6 | – | – | – | – | 18
5 | CSc1ccc(-c2c[nH]c(=O)cc2C2CCC(F)(F)CC2C(=O)NCC#N)cc1 (racemic) | 1200 | 20 | 4 | 540 | 5 | 410 | – | – | – | – | – | – | – | 4
6 | CSc1ccc(-c2cn(C)nc2C2CCC(F)(F)CC2C(=O)NCC#N)cc1 (racemic) | 9500 | 41 | 0.4 | 490 | 0.4 | 730 | – | – | – | 4.6 | 100 | 28.9 | – | 103
7 | CSc1ccc(-c2ccccc2C2CCC(F)(F)CC2C(=O)NCC#N)cc1 (racemic; form 1) [listing 1 of 2 here] | – | – | 0.3 | – | 0.3 | – | – | – | – | – | 39 | 18.5 | 16 | –
8 | CSc1ccc(-c2ccccc2C2CCC(F)(F)CC2C(=O)NCC#N)cc1 (racemic; form 1) [listing 2 of 2 here] | > 36000 | – | – | 940 | – | 780 | – | – | – | – | – | – | – | 53
9 | CSc1ccc(-c2ccccc2C2CCC(F)(F)CC2C(=O)NCC#N)cc1 (racemic; form 2) [listing 1 of 2 here] | – | – | 0.5 | – | – | – | – | – | – | – | – | – | 38 | –

Now from value to compound, other results behind:

Row | Selectivity ratio (Homo sapiens [2]) | IC50 (Oryctolagus cuniculus [3]; Oryctolagus cuniculus) [nM] | IC50 (Cathepsin K [4]) [nM] | Selectivity ratio (Homo sapiens [5]) | IC50 (Cathepsin K [6]) [nM] | Selectivity ratio (Homo sapiens [7]) | bioavailability [8] [%] | half-life [9] [h] | AUC [10] [µM·h] | half-life [11] [h] | bioavailability [12] [%] | AUC [13] [µM·h] | IC50 (Oryctolagus cuniculus [3]) [nM] | SMILES | Ratio IC50 (Oryctolagus cuniculus [1])
10 | > 5000 | 58 | 2 | 450 | 2 | 260 | – | – | – | – | – | – | – | N#CCNC(=O)C1CC(F)(F)CCC1c1cnccc1-c1ccc(SCF)cc1 (racemic) | 29
11 | > 2000 | 75 | 5 | 480 | 5 | 460 | – | – | – | – | – | – | – | CSc1ccc(-c2c[n+]([O-])ccc2C2CCC(F)(F)CC2C(=O)NCC#N)cc1 (racemic) | 15
12 | > 10000 | 10 | 1 | 850 | 1 | 540 | – | – | – | – | – | – | – | CSc1ccc(-c2ncccc2C2CCC(F)(F)CC2C(=O)NCC#N)cc1 (racemic) | 10
13 | > 120000 | – | – | 1100 | – | 880 | – | – | – | – | – | – | – | CSc1ccc(-c2ccccc2C2CCC(F)(F)CC2C(=O)NCC#N)cc1 (racemic; form 2) [listing 2 of 2 here] | 76
